Patent US11666549B2, “Regulation of cancer using natural compounds and/or diet” (UNIVERSITY OF FLORIDA RESEARCH FOUNDATION, INC., priority 2013, dated 2023)
“Also recorded” adds a separate entry of the source.

Tests used:
[1] = Body weight, TMZ vs. mKD/NP; conditions: after 4 days of treatment, TMZ 20 mg/kg
Procedure: FIG. 6: Body weight—TMZ vs. mKD/NP. Toxicity/safety of mKD/NP was compared to standard of care (TMZ, 20 mg/kg) by monitoring body weight after 4 days of treatment.
The first line chemotherapy for high grade gliomas is temozolomide [TMZ], which is an oral alkylating agent that damages DNA and triggers cell death. While TMZ is an effective chemotherapy agent it also has significant toxicity. Using the same subcutaneous model as noted in example 2, at the time of tumor presentation animals were randomly assigned to one of three groups: [1] control diet, no treatment; [2] control diet, SOC [TMZ, 20 mg/kg three times/week]; [3] mKD/NP diet.

[2] = system: high-grade gliomas such as GB; conditions: GB patients; cited from earlier work
[3] = Non-tumor death, TMZ vs. mKD/NP; type: in vivo, mouse; conditions: TMZ 20 mg/kg three times/week; mKD/NP diet; vs untreated controls
From the text: FIG. 5: Non-Tumor Death—TMZ vs. mKD/NP. Mortality rate unrelated to tumor was monitored during the course of treatments.

[4] = system: Colorectal adenocarcinoma cells (HT-29); test: NP on colon cancer cells in vitro, cell count; type: cell-based, human; conditions: daily EGCG 8 μM, Curcumin 0.5 μM, sulforaphane 2.5 μM or all three; counted when controls confluent
Procedure: Once the control cultures became confluent, a cell count was performed.

[5] = system: Human breast cancer cells (ZR751); test: NP on breast cancer cell viability, MTT assay; type: cell-based; conditions: daily EGCG 8 μM, Curcumin 0.5 μM, SFN 2.5 μM or combination; vs controls
Procedure: Human breast cancer cells (ZR751) were treated daily with EGCG (8 μM), Curcumin (0.5 μM) or SFN (2.5 μM) individually or in combination (NP). Once the control cultures became confluent, cell viability was measured using MTT assay.
Human breast cancer cells [ZR751] grown in culture and treated daily with physiological concentrations of either EGCG (8 μM), Curcumin (0.5 μM) or SFN (2.5 μM) or used in combination (NP).

hNSC = hNSC viability, MTT assay after neurosphere culture; type: cell-based, human; conditions: 14 days culture, daily treatment; EGCG 8 μM, Curcumin 0.5 μM, SFN 2.5 μM or all three
Procedure: FIG. 33B) hNSC were plated at 20K cells per 100 ul of medium and cultured in the neurosphere assay for 14 days. […] After 14 days in culture, MTT assay was performed to measure cell viability.

[6] = system: Patient derived hGB cells; test: Serial passage of hGB cells, growth and CSC expansion rate (Kll); type: cell-based, human; conditions: 5 passages; EGCG 8 μM, curcumin 0.5 μM, SFN 2.5 μM or combination; vs control
Procedure: FIG. 10A) Patient derived hGB cells were serially passed in culture for 5 passages under a variety of treatment conditions. […] Human GB cells were cultured in the neurosphere assay over 5 passages during which CSC expansion rate was evaluated.
In a second experiment [FIG. 10], patient derived hGB cells were serially passed in culture while being treated with the following NPs:
[4] A combination of all three NPs

[7] = system: Primary human GB stem cell lines; test: Daily fold expansion, NP and TMZ in vitro; type: cell-based; conditions: in combination with TMZ; EGCG 8 μM, Curcumin 0.5 μM, SFN 2.5 μM or all three
Procedure: FIG. 11: Daily fold expansion—Effect of NP and TMZ in vitro. Primary human GB stem cell lines were treated daily for 4 out of 5 days in culture TMZ alone or in combination with EGCG (8 μM), Curcumin (0.5 μM), sulforaphane (2.5 μM) or a combination of all three (NP). Cells were passed after 5-7 days and cell counts performed. […] The stars (*) are compared to control, # to TMZ alone and $ to the different combinations of TMZ with each of the individual natural products. 1 symbol, p<0.05, 3 symbols, p<0.001, 1-way ANOVA.
Standard of care [SOC] for many solid tissue cancers involves the use of chemotherapy, which for many advanced or high grade tumors provides marginal benefit. Patient derived hGB cells were grown in culture and treated daily with the conventional drug temozolomide [TMZ, 20 μM] only or in combination with the following NPs:
[4] a combination of all three NPs
After 5-7 days in culture cells were counted and the mean daily fold expansion calculated.

[8] = system: Primary human GBM stem cell lines; test: NP in vitro fold expansion of hGB cells; type: cell-based; conditions: EGCG 8 μM, Curcumin 0.5 μM, sulforaphane 2.5 μM or all three; daily for 4 out of 5 days; vs control
Procedure: Cells were passed after 5-7 days and cell counts were performed. […] Micrographs show cultures after 4 days of exposure to the different treatments.
Patient derived hGB cells were cultured under defined conditions using established protocols that allow the tumor cells to retain both their phenotypic and genotypic properties in vitro. hGB cell lines were treated with the following NPs:

[9] = system: Lung carcinoma cells (A549); test: NP on lung cancer cells in vitro, cell count; type: cell-based, human; conditions: daily EGCG 8 μM, Curcumin 0.5 μM, sulforaphane 2.5 μM or all three; counted when controls confluent
Procedure: Once the control cultures became confluent a cell count was performed.

Row | Compound | body weight [1] | body weight ([1]; listed as SOC) | negative side effects [2] | mortality from non-tumor related causes [3] | cell number [4] | cell viability (MTT) [5] | cell viability (MTT) (hNSC) | CSC self-renewing symmetric division rate (Kll) [6] | mean daily fold expansion, natural product added to TMZ treatment [7] | mean daily fold expansion of GB cells [8] | cell number [9]
1 | Cn1nnc2c(C(N)=O)ncn2c1=O [TMZ, temozolomide] | significant loss of body weight compared to control and mKD/NP | significantly reduced | nausea, vomiting and hematological toxicity | increase in mortality compared to the untreated controls |  |  |  |  |  |  | 
2 | C[S+]([O-])CCCCN=C=S (stereo not drawn) [SFN, sulforaphane] |  |  |  |  | significant reduction in cell number | no statistically significant effect on reducing the number of breast cancer cells; also recorded: none of the natural product showed statistically significant effect compared to controls | did not show any effect on the viability of hNSCs | significant decrease of CSCs self-renewing symmetric division rate compared to control | enhanced this effect, with SFN demonstrating the greatest effect; also recorded: significant reduction in the mean daily fold expansion of hGB cells compared to control | significant reduction in mean daily fold expansion | 
3 | COc1cc(/C=C/C(=O)CC(=O)/C=C/c2ccc(O)c(OC)c2)ccc1O [Curcumin, curcumin] |  |  |  |  | significant reduction in cell number | no statistically significant effect on reducing the number of breast cancer cells; also recorded: none of the natural product showed statistically significant effect compared to controls | did not show any effect on the viability of hNSCs | Only SFN or NP treated groups demonstrated significant decrease | significant reduction in the mean daily fold expansion of hGB cells compared to control | significant reduction in mean daily fold expansion | do not show a statistically significant effect in reducing cell numbers
4 | epigallocatechin-3-gallate [EGCG] |  |  |  |  | significant reduction in cell number | no statistically significant effect on reducing the number of breast cancer cells; also recorded: none of the natural product showed statistically significant effect compared to controls | did not show any effect on the viability of hNSCs | Only SFN or NP treated groups demonstrated significant decrease | enhanced this effect; also recorded: significant reduction in the mean daily fold expansion of hGB cells compared to control | significant reduction in mean daily fold expansion | do not show a statistically significant effect in reducing cell numbers
